Patent US10035760B2, “Inhibitors of human immunodeficiency virus replication” (priority 2013, dated 2018)
pEC50: −log10 of the molar value. Read-outs that look alike come from different tables or passages of the source.

Test system: recombinant NL4-3 virus (Renilla luciferase) in MT-2 cells
Assay: HIV cell culture assay (antiviral activity, luciferase readout in infected MT-2 cells)
Format: cell-based
In short: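 EC50 derived via median-effect equation from luciferase activity in MT-2 cells after 4–5 day infection, compound serially diluted. Virus: recombinant NL4-3 with Renilla luciferase replacing part of nef, made in 293T cells.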

[1] = recombinant NL4-3 Renilla luciferase virus in MT-2 cells, read-out: EC50

CN(C(=O)[C@H](Cc1cc(F)cc(F)c1)NC(=O)NS(=O)(=O)c1ccc(F)cc1F)c1ccc2scnc2c1 [Example ZY-17, (S)—N-(benzo[d]thiazol-5-yl)-3-(3,5-difluorophenyl)-2-(3-((2,4-difluorophenyl)sulfonyl)ureido)-N-methylpropanamide]
pEC50 (Renilla, NL43, read-out: Activity, antiviral activity class, recombinant NL4-3 Renilla luciferase virus in MT-2 cells): 6.00 to 7.00

(S)-2-(3-([1,1′-biphenyl]-2-ylsulfonyl)ureido)-N-(benzo[d][1,3]dioxol-5-yl)-N-methyl-3-phenylpropanamide [Example 48]
pEC50 (antiviral activity class, recombinant NL4-3 Renilla luciferase virus in MT-2 cells, read-out: Activity): 5.00 to 6.00

(S)—N-((1-(3,3-dimethylazetidin-1-yl)-1-oxo-3-phenylpropan-2-yl)carbamoyl)-2-methylbenzenesulfonamide [Example 191]
pEC50 [1]: < 4.00

(S)—N-((1-(3-methoxyazetidin-1-yl)-1-oxo-3-phenylpropan-2-yl)carbamoyl)-2-methylbenzenesulfonamide [Example 190]
pEC50 [1]: < 4.00
